Tested on: metastatic TE-ES (SK-N-MC)
Assay: Metastatic engineered ES bone tumor (TE-ES) in isolated culture, linsitinib
Format: cell-based, human
Conditions: 12 μM
Text: The effects of linsitinib were studied in an experiment performed according to the 3-week treatment cycle used in the clinical trial (3 days of drug administration followed by 4 days without the drug, in 3 cycles), with luminescence signal serving as an indicator of cancer cell viability within the TE-ES.
Determining the effects of linsitinib on ES cells and osteoblasts within the engineered ES bone tumors across a 3-week clinical drug treatment regimen is shown in FIGS. 33A-33B. […] Supernatants were collected from each individual sample across the duration of the drug treatments and were analyzed for osteoblast function (OCN, OPN) and for cytotoxicity (LDH) (mean±s.e.m., n=3).
Two weeks following the initiation of osteogenic differentiation, aggregates of ES tumor cells were prepared as described previously, using 0.3×10^6 cells per aggregate. After 1 week of culture, corresponding to the end of bone tissue culture (3 weeks), the primary ES cell aggregates were placed into the engineered bone constructs (3 aggregates per construct, placed apart of each other). Tumor models were established for two different types of primary ES cells: non-metastatic (RD-ES) and metastatic (SK-N-MC). Tissue engineered RD-ES and SK-N-MC tumors were cultured in the RPMI and EMEM media, respectively, supplemented with 10% FBS and 1% penicillin/streptomycin. Bone constructs cultured without tumor cell aggregates (TE-bone) in RPMI and EMEM media were used as controls.
Specifically, linsitinib was dissolved at a 10 mM concentration in DMSO (Corning) and mixed in with the respective cell medium at a […] concentration unless otherwise noted. Vehicle treatments involved just the addition of DMSO at identical volumes as a control. Tissues were randomly assigned to experimental groups. Medium was changed every day.
Cell viability was analyzed using a previously established protocol. Cancer cell viability was measured for GFP-Luciferase labelled cancer cells using ONE-Glo luciferase substrate that was prepared according to manufacturer's protocol (Promega). Samples were collected following 3, 7, and 21 days cycles of linsitinib treatment. Where noted, longitudinal cell viability was also assessed using luminescence, though at the cost of signal strength. Briefly, in vivo grade VivoGlo™ Luciferin (Promega) was made at a 200× stock concentration (30 mg/ml) in water, added to sample culture media at a 1:200 dilution, and scanned using a spectrophotometer (Biotek). Some of the IC50 values were determined using cell viability data generated using an MTT assay (RealTime-Glo™ MT Cell Viability Assay, Promega) that were analyzed according to manufacturer's protocol.
Osteocalcin (OCN), osteopontin (OPN), and lactic acid dehydrogenase (LDH) secreted levels were all measured using a similar approach. […] LDH secretion was determined using a Lactate Dehydrogenase Assay Kit (Colorimetric; Abcam).

SMILES: C[C@]1(O)C[C@@H](c2nc(-c3ccc4ccc(-c5ccccc5)nc4c3)c3c(N)nccn32)C1 [linsitinib]
- cytotoxicity (LDH secretion) (3-week regimen): spiked
- osteocalcin secretion (3-week regimen): decreased
- cancer cell population (luminescence) across the clinical regimen (21-day treatment regimen): decrease in drug efficacy, as the cancer cell population continued to expand
- drug response (luminescence) (after 3 days): significant drug response
- osteopontin secretion (throughout the 21 days): decreased
